≈ marks a conversion by molar mass, not a printed value. Like-named read-outs stand apart in the source and are kept apart here.
Assays:
[1] = molecular target: E. coli RNA polymerase σ^70 holoenzyme (Escherichia coli, UniProt P0A8T7+P0A8V2); experiment: Fluorescence-detected inhibition of Escherichia coli RNA polymerase; format: biochemical; conditions: read-out: IC50 E. coli RNAP
Procedure: (§1) Fluorescence-detected RNA polymerase assays with E. coli RNA polymerase were performed by a modification of the procedure of Kuhlman et al., 2004 [Kuhlman, P., Duff, H. & Galant, A. (2004) A fluorescence-based assay for multisubunit DNA-dependent RNA polymerases. Anal. Biochem. 324, 183-190]. Reaction mixtures contained (20 μl): 0-100 nM test compound, 75 nM E. coli RNA polymerase σ^70 holoenzyme, 20 nM 384 bp DNA fragment containing the bacteriophage T4 N25 promoter, 100 μM ATP, 100 μM GTP, 100 μM UTP, 100 μM CTP, 50 mM Tris-HCl, pH 8.0, 100 mM KCl, 10 mM MgCl2, 1 mM DTT, 10 μg/ml bovine serum albumin, and 5.5% glycerol. Reaction components other than DNA and NTPs were pre-incubated for 10 min at 37° C. Reactions were carried out by addition of DNA and incubation for 5 min at 37° C., followed by addition of NTPs and incubation for 60 min at 37° C. DNA was removed by addition of 1 μl 5 mM CaCl2 and 2 U DNaseI (Ambion, Inc.), followed by incubation for 90 min at 37° C. RNA was quantified by addition of 100 μl RiboGreen RNA Quantitation Reagent (Invitrogen, Inc.; 1:500 dilution in Tris-HCl, pH 8.0, 1 mM EDTA), followed by incubation for 10 min at 25° C., followed by measurement of fluorescence intensity [excitation wavelength=485 nm and emission wavelength=535 nm; QuantaMaster QM1 spectrofluorometer (PTI, Inc.)]. IC50 is defined as the concentration of inhibitor resulting in 50% inhibition of RNA polymerase activity.

[2] = system: Escherichia coli D212f2tolC; conditions: MIC in presence of 10% mouse serum divided by MIC in absence of 10% mouse serum
[3] = system: Enterococcus faecalis ATCC strain 19433; experiment: MIC, spiral gradient endpoint assay, E. faecalis; conditions: for MIC: Enterococcus faecalis, ATCC19433, 16 h, read-out: MIC E. faecalis 19433
[4] = molecular target: M. tuberculosis RNA polymerase core enzyme, M. tuberculosis σ^A (Mycobacterium tuberculosis, UniProt P9WGY7+P9WGY9); experiment: Fluorescence-detected inhibition of Mycobacterium tuberculosis RNA polymerase; format: biochemical
Procedure: as §1
(§2) Fluorescence-detected RNA polymerase assays with M. tuberculosis RNA polymerase were performed as in Example 17.1, using reaction mixtures containing (20 μl): 0-100 nM test compound, 75 nM M. tuberculosis RNA polymerase core enzyme, 300 nM M. tuberculosis σ^A, 20 nM 384 bp DNA fragment containing the bacteriophage […] N25 promoter, 100 μM ATP, 100 GTP, 100 μM UTP, 100 μM CTP, 40 mM Tris-HCl, pH 8.0, 80 mM NaCl, 5 mM MgCl2, 2.5 mM DTT, and 12.7% glycerol. IC50 is defined as the concentration of inhibitor resulting in 50% inhibition of RNA polymerase activity.

[5] = system: Brucella melitensis strain 16M; experiment: microbe, parasite or virus in culture; format: cell-based
[6] = system: Bacillus anthracis strain Vollum 1 b; experiment: microbe, parasite or virus in culture; format: cell-based
[7] = Metabolic stability in the presence of human liver microsomes
[8] = system: Burkholderia mallei strain CHN7; experiment: microbe, parasite or virus in culture; format: cell-based
physchem = conditions: pH 7.4
[9] = system: Burkholderia pseudomallei strain Human/Blood/OH/US/1994; experiment: microbe, parasite or virus in culture; format: cell-based
[10] = molecular target: S. aureus RNA polymerase core enzyme, S. aureus σ^A (Staphylococcus aureus, UniProt P47768+Q2G0N5); experiment: Fluorescence-detected inhibition of Staphylococcus aureus RNA polymerase; format: biochemical
Procedure: as §1
as §2, with “assays with S. aureus RNA polymerase” for “assays with M. tuberculosis RNA polymerase”, “75 nM S. aureus RNA polymerase” for “75 nM M. tuberculosis RNA polymerase”, “300 nM S. aureus σ^A, 20” for “300 nM M. tuberculosis σ^A, 20”, “ATP, 100 μM GTP, 100” for “ATP, 100 GTP, 100”

[11] = system: Francisella tularensis strain SCHU4; experiment: microbe, parasite or virus in culture; format: cell-based
[12] = not given; remark: listed apart in the source
[13] = read-out: IC50 M. tuberculosis RNAP

Sequence of S. aureus RNA polymerase core enzyme, S. aureus σ^A (Q2FW32 whole entry): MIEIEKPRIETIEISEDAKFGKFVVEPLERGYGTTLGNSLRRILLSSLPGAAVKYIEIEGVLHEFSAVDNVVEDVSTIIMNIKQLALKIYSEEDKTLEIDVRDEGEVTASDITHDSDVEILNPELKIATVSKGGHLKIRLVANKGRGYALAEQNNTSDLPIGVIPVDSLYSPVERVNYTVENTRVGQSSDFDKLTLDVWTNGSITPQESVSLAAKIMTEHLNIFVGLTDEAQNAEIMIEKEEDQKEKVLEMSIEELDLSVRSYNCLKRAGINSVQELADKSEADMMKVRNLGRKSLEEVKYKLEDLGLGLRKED
Sequence of S. aureus RNA polymerase core enzyme, S. aureus σ^A (P0A0J0 whole entry, further chain): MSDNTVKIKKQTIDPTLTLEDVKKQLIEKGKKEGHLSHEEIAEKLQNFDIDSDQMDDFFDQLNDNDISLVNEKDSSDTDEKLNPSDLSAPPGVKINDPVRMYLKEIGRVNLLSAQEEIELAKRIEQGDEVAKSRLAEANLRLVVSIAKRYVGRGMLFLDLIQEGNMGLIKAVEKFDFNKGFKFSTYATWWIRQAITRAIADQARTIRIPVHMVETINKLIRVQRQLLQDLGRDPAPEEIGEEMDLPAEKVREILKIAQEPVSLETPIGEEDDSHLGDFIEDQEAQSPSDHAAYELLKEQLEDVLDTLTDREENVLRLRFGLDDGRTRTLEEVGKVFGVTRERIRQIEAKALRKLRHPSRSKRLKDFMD
Sequence of S. aureus RNA polymerase core enzyme, S. aureus σ^A (P47768 whole entry): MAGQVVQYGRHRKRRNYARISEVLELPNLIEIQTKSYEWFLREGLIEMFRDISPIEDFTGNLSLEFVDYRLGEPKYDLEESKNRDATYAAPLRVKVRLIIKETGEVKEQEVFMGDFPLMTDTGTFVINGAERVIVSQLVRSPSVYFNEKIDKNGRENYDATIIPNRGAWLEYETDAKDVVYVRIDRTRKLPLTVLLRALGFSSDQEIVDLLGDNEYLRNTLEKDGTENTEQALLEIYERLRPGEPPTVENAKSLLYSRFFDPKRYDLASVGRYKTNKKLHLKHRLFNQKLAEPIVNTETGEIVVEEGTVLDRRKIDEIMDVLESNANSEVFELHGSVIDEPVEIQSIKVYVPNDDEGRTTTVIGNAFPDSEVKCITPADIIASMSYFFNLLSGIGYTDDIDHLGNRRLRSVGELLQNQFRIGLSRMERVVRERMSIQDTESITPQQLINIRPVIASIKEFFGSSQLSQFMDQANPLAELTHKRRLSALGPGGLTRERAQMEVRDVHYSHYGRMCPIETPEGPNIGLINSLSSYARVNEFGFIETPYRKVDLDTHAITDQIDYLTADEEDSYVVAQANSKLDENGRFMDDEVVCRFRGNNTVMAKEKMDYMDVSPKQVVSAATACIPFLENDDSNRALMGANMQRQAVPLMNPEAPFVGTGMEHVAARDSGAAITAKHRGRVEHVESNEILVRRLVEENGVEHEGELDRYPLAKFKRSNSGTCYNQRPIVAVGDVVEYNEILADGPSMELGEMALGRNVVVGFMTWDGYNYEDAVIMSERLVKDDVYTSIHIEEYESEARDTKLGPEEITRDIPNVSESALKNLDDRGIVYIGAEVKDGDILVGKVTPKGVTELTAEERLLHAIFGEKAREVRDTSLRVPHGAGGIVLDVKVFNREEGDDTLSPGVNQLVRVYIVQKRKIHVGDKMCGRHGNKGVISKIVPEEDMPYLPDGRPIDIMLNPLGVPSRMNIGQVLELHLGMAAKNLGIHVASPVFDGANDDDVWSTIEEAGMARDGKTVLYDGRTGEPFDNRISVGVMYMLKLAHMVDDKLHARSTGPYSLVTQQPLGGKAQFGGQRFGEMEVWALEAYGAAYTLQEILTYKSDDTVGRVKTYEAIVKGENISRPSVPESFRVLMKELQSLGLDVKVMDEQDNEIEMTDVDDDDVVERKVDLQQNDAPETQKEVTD
Sequence of S. aureus RNA polymerase core enzyme, S. aureus σ^A (Q2G0N5 whole entry): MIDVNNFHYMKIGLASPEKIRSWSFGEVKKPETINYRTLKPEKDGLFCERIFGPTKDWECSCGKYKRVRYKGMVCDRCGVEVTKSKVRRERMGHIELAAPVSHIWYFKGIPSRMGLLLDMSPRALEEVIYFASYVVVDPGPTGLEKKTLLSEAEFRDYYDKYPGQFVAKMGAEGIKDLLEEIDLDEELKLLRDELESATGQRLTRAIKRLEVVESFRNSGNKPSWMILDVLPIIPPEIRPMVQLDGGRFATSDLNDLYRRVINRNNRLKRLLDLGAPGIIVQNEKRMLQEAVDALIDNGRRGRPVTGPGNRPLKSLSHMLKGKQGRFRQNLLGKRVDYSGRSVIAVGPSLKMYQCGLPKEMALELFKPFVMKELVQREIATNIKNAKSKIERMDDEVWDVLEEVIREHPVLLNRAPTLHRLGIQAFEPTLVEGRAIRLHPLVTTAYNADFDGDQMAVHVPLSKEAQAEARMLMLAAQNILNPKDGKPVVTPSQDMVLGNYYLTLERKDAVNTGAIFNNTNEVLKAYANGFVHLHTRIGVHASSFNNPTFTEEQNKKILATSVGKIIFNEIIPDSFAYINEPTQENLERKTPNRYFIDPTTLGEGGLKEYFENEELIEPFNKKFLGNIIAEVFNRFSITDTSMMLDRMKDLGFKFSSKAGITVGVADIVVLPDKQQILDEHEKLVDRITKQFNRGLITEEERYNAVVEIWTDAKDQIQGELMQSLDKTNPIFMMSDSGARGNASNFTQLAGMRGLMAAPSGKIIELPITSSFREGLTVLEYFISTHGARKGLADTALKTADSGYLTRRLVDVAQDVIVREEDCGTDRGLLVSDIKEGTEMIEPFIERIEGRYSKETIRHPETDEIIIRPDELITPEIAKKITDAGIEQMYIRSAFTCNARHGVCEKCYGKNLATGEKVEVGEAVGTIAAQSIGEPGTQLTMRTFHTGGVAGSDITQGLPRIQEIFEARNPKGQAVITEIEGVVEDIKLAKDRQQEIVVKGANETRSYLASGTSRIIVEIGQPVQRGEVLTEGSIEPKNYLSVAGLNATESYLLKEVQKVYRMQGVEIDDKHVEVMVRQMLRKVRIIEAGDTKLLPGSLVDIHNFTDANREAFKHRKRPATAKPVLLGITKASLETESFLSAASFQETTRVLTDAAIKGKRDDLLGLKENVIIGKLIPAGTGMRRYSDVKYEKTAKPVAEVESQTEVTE

SMILES | IC50 [1] | serum shift [2] | MIC [3] | IC50 [4, 13] | IC50 ([10]; read-out: IC50 S. aureus RNAP) | other results
COC(=O)N/C=C/CCCc1cc(O)c(C(=O)/C(C)=C/C=C(\C)CCC(F)(F)F)c(=O)o1 [compound 11, Methyl ((E)-5-(4-hydroxy-2-oxo-3-((2E,4E)-8,8,8-trifluoro-2,5-dimethylocta-2,4-dienoyl)-2H-pyran-6-yl)pent-1-en-1-yl)carbamate] | 20 nM | 4 | > 40 µg/mL |  |  | 
COC(=O)N/C=C/CCCc1cc(O)c(C(=O)/C(C)=C/C=C(\C)CCCC(F)(F)F)c(=O)o1 [compound 9, Methyl ((E)-5-(4-hydroxy-2-oxo-3-((2E,4E)-9,9,9-trifluoro-2,5-dimethylnona-2,4-dienoyl)-2H-pyran-6-yl)pent-1-en-1-yl)carbamate] | 5 nM | 8 | 10 µg/mL (≈ 21.2 µM) | 60 nM |  | 
COC(=O)N/C=C/CCC(C)c1cc(O)c(C(=O)/C(C)=C/C=C(\C)CCCC(F)(F)F)c(=O)o1 (stereo not drawn) [compound 1, Methyl ((E)-5-(4-hydroxy-2-oxo-3-((2E,4E)-9,9,9-trifluoro-2,5-dimethylnona-2,4-dienoyl)-2H-pyran-6-yl)hex-1-en-1-yl)carbamate] | 4 nM | 8 | 9 µg/mL (≈ 18.5 µM) | 30 nM | 10 nM | MIC ([5]; Brucella melitensis, 16M, read-out: MIC B. melitensis 16M): 6 µg/mL (≈ 12.4 µM); MIC ([6]; Bacillus anthracis, VOLLUM1B, read-out: MIC B. anthracis Vollum1b): 6 µg/mL (≈ 12.4 µM); higher metabolic stability than (±)myxopyronin B ([7]; human liver microsomes, relative to Myx B): 4 to 5 times; half-life ([7]; human, liver microsomes): 14 min; MIC ([8]; Burkholderia mallei, CHN7, read-out: MIC B. mallei CHN7): 10 µg/mL (≈ 20.6 µM); logD (physchem): 1.4; MIC ([9]; Burkholderia pseudomallei, read-out: MIC B. pseudomallei Human/Blood/OH/US/1994): 50 µg/mL (≈ 103 µM); MIC ([11]; Francisella tularensis, SCHU4, read-out: MIC F. tularensis SCHU4): 3 µg/mL (≈ 6.18 µM)
CCCC/C(C)=C/C=C(\C)C(=O)c1c(O)cc([C@H](C)CC/C=C/NC(=O)OC)oc1=O (racemic) [Myx B, (±)myxopyronin B, reference compound] | 10 nM | 16 |  | 100 nM | 70 nM | MIC B. melitensis 16M ([5]; broth microdilution): 3 µg/mL (≈ 6.95 µM); MIC B. anthracis Vollum1b ([6]; broth microdilution): 6 µg/mL (≈ 13.9 µM); MIC B. mallei CHN7 ([8]; broth microdilution): 6 µg/mL (≈ 13.9 µM); logD (pH 7.4): 1.8; MIC B. pseudomallei Human/Blood/OH/US/1994 ([9]; broth microdilution): 30 µg/mL (≈ 69.5 µM); MIC F. tularensis SCHU4 ([11]; broth microdilution): 2 µg/mL (≈ 4.63 µM); half-life human liver microsomes [12]: 3 min; MIC E. faecalis 19433 ([3]; 16 h at 37° C., Mueller-Hinton II agar): 20 µg/mL (≈ 46.3 µM)
COC(=O)N/C=C/CCC(C)c1cc(O)c(C(=O)/C(C)=C/C=C(\C)CCCCC(F)(F)F)c(=O)o1 (stereo not drawn) [compound 3, Methyl ((E)-5-(4-hydroxy-2-oxo-3-((2E,4E)-10,10,10-trifluoro-2,5-dimethyldeca-2,4-dienoyl)-2H-pyran-6-yl)hex-1-en-1-yl)carbamate] | 10 nM | 16 | 10 µg/mL (≈ 20 µM) |  |  | IC50 [4]: 200 nM; IC50 [10]: 40 nM
COC(=O)N/C=C/CCC(C)c1cc(O)c(C(=O)/C(C)=C/C=C(\C)CCC(F)(F)F)c(=O)o1 (stereo not drawn) [compound 5] | 4 nM | 8 | > 40 µg/mL | 100 nM | 100 nM | 
